Patent US10562909B2, “Fused quadracyclic compounds, compositions and uses thereof” (Tabomedex Biosciences, LLC, priority 2016, dated 2020)

The compounds below were run against MAPKAPK2 (Homo sapiens, UniProt P49137) (assay: MK2 Enzymatic Assay). Conditions: 0.5 nM MAPKAPK2, 3 μM ATP, 2 μM Ser/Thr4 peptide, 23° C., values given as concentration bins.
Assay type: biochemical
Outline: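 MAPKAPK2 (2× stock 1 nM) and peptide substrate (2× 4 μM) were preincubated 20 min, then started with ATP (2× stock 6 μM) for 120 min. After 120 min development, coumarin/fluorescein emission ratio gave percent phosphorylation against 0% and 100% phosphopeptide controls.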

Sequence of MAPKAPK2 (P49137 whole entry, species assumed): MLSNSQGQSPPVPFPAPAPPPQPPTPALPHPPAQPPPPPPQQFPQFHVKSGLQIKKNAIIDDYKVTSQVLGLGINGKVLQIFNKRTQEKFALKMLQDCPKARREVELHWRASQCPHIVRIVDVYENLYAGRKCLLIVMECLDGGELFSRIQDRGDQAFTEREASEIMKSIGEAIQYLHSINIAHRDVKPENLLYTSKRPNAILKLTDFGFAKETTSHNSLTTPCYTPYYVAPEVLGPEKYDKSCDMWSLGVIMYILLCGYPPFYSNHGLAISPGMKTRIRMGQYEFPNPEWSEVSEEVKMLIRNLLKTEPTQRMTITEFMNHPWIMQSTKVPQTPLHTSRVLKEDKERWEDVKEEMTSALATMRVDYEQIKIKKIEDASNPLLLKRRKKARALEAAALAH

IC50 [nM] | SMILES
< 50 | CNC[C@@H]1CCN(c2ccc3c(c2)Cn2cc(-c4ccc(F)cc4)cc2-c2nccn2-3)C1 [Compound 347, (S)-1-(1-(12-(4-fluorophenyl)-9H-benzo[e]imidazo[2,1-c]pyrrolo[1,2-a][1,4]diazepin-7-yl)pyrrolidin-3-yl)-N-methylmethanamine]
50 to 100 | CN[C@@H]1CN(c2ccc3c(c2)Cn2cc(-c4ccc(F)cc4)cc2-c2ncnn2-3)C[C@H]1CO (relative stereo) [Compound 505, (Trans-1-(12-(4-fluorophenyl)-9H-benzo[e]pyrrolo[1,2-a][1,2,4]triazolo[5,1-c][1,4]diazepin-7-yl)-4-(methylamino)pyrrolidin-3-yl)methanol]
< 50 | CN(C)C[C@@H]1CCN(c2ccc3c(c2)Cn2cc(-c4ccc(C#N)cc4)cc2-c2nnnn2-3)C1 [Compound 241, (S)-4-(7-(3-((dimethylamino)methyl)pyrrolidin-1-yl)-9H-benzo[e]pyrrolo[1,2-a]tetrazolo[5,1-c][1,4]diazepin-12-yl)benzonitrile]
< 50 | CN(C)C[C@H]1CN(c2ccc3c(c2)Cn2cc(-c4ccc(C#N)cc4)cc2-c2nncn2-3)C[C@H]1O (relative stereo) [Compound 75, 4-(7-(Cis-3-((dimethylamino)methyl)-4-hydroxypyrrolidin-1-yl)-9H-benzo[e]pyrrolo[1,2-a] [1,2,4]triazolo[3,4-c][1,4]diazepin-12-yl)benzonitrile]
< 50 | Fc1ccc(-c2cc3n(c2)Cc2cc(N4CCC5(CNC5)C4)ccc2-n2nnnc2-3)cc1 [Compound 398, 12-(4-fluorophenyl)-7-(2,6-diazaspiro[3.4]octan-6-yl)-9H-benzo[e]pyrrolo[1,2-a]tetrazolo[5,1-c][1,4]diazepine]
50 to 100 | CN(C)[C@H]1CN(c2ccc3c(c2)Cn2cc(-c4ccc(C#N)cc4)cc2-c2nncn2-3)C[C@@H]1O [Compound 58, 4-(7-((3S,4S)-3-(dimethylamino)-4-hydroxypyrrolidin-1-yl)-9H-benzo[e]pyrrolo[1,2-a][1,2,4]triazolo[3,4-c][1,4]diazepin-12-yl)benzonitrile]
< 50 | CN(C)CC[C@H]1CN(c2ccc3c(c2)Cn2cc(-c4ccc(F)cc4)cc2-c2nccn2-3)C[C@@H]1O (relative stereo) [Compound 494, Trans-4-(2-(dimethylamino)ethyl)-1-(12-(4-fluorophenyl)-9H-benzo[e]imidazo[2,1-c]pyrrolo[1,2-a][1,4]diazepin-7-yl)pyrrolidin-3-ol]
< 50 | CN1CC2(CCN(c3ccc4c(c3)Cn3cc(-c5ccc(F)cc5)cc3-c3ncnn3-4)C2)C1 [Compound 412, 12-(4-fluorophenyl)-7-(2-methyl-2,6-diazaspiro[3.4]octan-6-yl)-9H-benzo[e]pyrrolo[1,2-a][1,2,4]triazolo[5,1-c][1,4]diazepine]
< 50 | CNC[C@H]1CN(c2ccc3c(c2)Cn2cc(-c4ccc(F)cc4)cc2-c2nccn2-3)C[C@@H]1O [Compound 363, (3R,4S)-1-(12-(4-fluorophenyl)-9H-benzo[e]imidazo[2,1-c]pyrrolo[1,2-a][1,4]diazepin-7-yl)-4-((methylamino)methyl)pyrrolidin-3-ol]
< 50 | CNCC1CCN(c2ccc3c(c2)Cn2cc(-c4ccc(F)cc4)cc2-c2nnnn2-3)C1 (centres unmarked) [Compound 388, 1-(1-(12-(4-fluorophenyl)-9H-benzo[e]pyrrolo[1,2-a]tetrazolo[5,1-c][1,4]diazepin-7-yl)pyrrolidin-3-yl)-N-methylmethanamine]
< 50 | Fc1ccc(-c2cc3n(c2)Cc2cc(N4CC5(CCNC5)C4)ccc2-n2ccnc2-3)cc1 [Compound 378, 12-(4-fluorophenyl)-7-(2,6-diazaspiro[3.4]octan-2-yl)-9H-benzo[e]imidazo[2,1-c]pyrrolo[1,2-a][1,4]diazepine]
< 50 | CN(C)[C@H]1CCN(c2ccc3c(c2)Cn2cc(-c4ccc(C#N)cc4)cc2-c2ncnn2-3)C1 [Compound 260, (S)-4-(7-(3-(dimethylamino)pyrrolidin-1-yl)-9H-benzo[e]pyrrolo[1,2-a][1,2,4]triazolo[5,1-c][1,4]diazepin-12-yl)benzonitrile]
100 to 200 | O=C(O)CN1CC2(CCN(c3ccc4c(c3)Cn3cc(-c5ccc(F)cc5)cc3-c3nccn3-4)C2)C1 [Compound 478, 2-(6-(12-(4-fluorophenyl)-9H-benzo[e]imidazo[2,1-c]pyrrolo[1,2-a][1,4]diazepin-7-yl)-2,6-diazaspiro[3.4]octan-2-yl)acetic acid]
< 50 | NC[C@H]1CCN(c2ccc3c(c2)Cn2cc(-c4ccc(F)cc4)cc2-c2nncn2-3)C1 [Compound 334, (R)-(1-(12-(4-fluorophenyl)-9H-benzo[e]pyrrolo[1,2-a][1,2,4]triazolo[3,4-c][1,4]diazepin-7-yl)pyrrolidin-3-yl)methanamine]
200 to 1000 | O=C1N[C@@H]2CN(c3ccc4c(c3)Cn3cc(-c5ccc(F)cc5)cc3-c3nccn3-4)C[C@@H]2O1 [Compound 481, (3aR,6aS)-5-(12-(4-fluorophenyl)-9H-benzo[e]imidazo[2,1-c]pyrrolo[1,2-a][1,4]diazepin-7-yl)hexahydro-2H-pyrrolo[3,4-d]oxazol-2-one]
< 50 | CN(C)C[C@H]1CN(c2ccc3c(c2)Cn2cc(-c4ccc(C#N)cc4)cc2-c2nccn2-3)C[C@@H]1O [Compound 137, 4-(7-((3S,4R)-3-((dimethylamino)methyl)-4-hydroxypyrrolidin-1-yl)-9H-benzo[e]imidazo[2,1-c]pyrrolo[1,2-a][1,4]diazepin-12-yl)benzonitrile]
< 50 | CC(C)(CO)NC[C@@H]1CCN(c2ccc3c(c2)Cn2cc(-c4ccc(F)cc4)cc2-c2nccn2-3)C1 [Compound 360, (S)-2-(((1-(12-(4-fluorophenyl)-9H-benzo[e]imidazo[2,1-c]pyrrolo[1,2-a][1,4]diazepin-7-yl)pyrrolidin-3-yl)methyl)amino)-2-methylpropan-1-ol]
< 50 | CNC[C@H]1CN(c2ccc3c(c2)Cn2cc(-c4ccc(C#N)cc4)cc2-c2nncn2-3)C[C@H]1O (racemic) [Compound 73, 4-(7-(cis-3-hydroxy-4-((methylamino)methyl)pyrrolidin-1-yl)-9H-benzo[e]pyrrolo[1,2-a] [1,2,4]triazolo[3,4-c][1,4]diazepin-12-yl)benzonitrile]
< 50 | CN(C)[C@@H]1CN(c2ccc3c(n2)Cn2cc(-c4ccc(C#N)cc4)cc2-c2nccn2-3)C[C@H]1O [Compound 300, 4-(7-((3R,4R)-3-(dimethylamino)-4-hydroxypyrrolidin-1-yl)-9H-imidazo[2,1-c]pyrido[3,2-e]pyrrolo[1,2-a][1,4]diazepin-12-yl)benzonitrile]
< 50 | CNCC1CCN(c2ccc3c(c2)Cn2cc(-c4ccc(C#N)cc4)cc2-c2nnnn2-3)C1 (centres unmarked) [Compound 239, 4-(7-(3-((methylamino)methyl)pyrrolidin-1-yl)-9H-benzo[e]pyrrolo[1,2-a]tetrazolo[5,1-c] [1,4]diazepin-12-yl)benzonitrile]
< 50 | CC1c2cc(N3C[C@@H](CN(C)C)[C@H](O)C3)ccc2-n2ccnc2-c2cc(-c3ccc(F)cc3)cn21 (stereo partly drawn) [Compound 507, (3S,4R)-4-((dimethylamino)methyl)-1-(12-(4-fluorophenyl)-9-methyl-9H-benzo[e]imidazo[2,1-c]pyrrolo[1,2-a][1,4]diazepin-7-yl)pyrrolidin-3-ol]
50 to 100 | CN(C)[C@H]1CN(c2ccc3c(n2)Cn2cc(-c4ccc(C#N)cc4)cc2-c2nccn2-3)C[C@H]1O [Compound 302, 4-(7-((3S,4R)-3-(dimethylamino)-4-hydroxypyrrolidin-1-yl)-9H-imidazo[2,1-c]pyrido[3,2-e]pyrrolo[1,2-a][1,4]diazepin-12-yl)benzonitrile]
< 50 | CN(C)C[C@@H]1CN(c2ccc3c(c2)Cn2cc(-c4ccc(F)cc4)cc2-c2nccn2-3)C[C@H]1O [Compound 357, (3S,4R)-4-((dimethylamino)methyl)-1-(12-(4-fluorophenyl)-9H-benzo[e]imidazo[2,1-c]pyrrolo[1,2-a][1,4]diazepin-7-yl)pyrrolidin-3-ol]
< 50 | N[C@H]1CN(c2ccc3c(c2)Cn2cc(-c4ccc(F)cc4)cc2-c2nccn2-3)C[C@@H]1CO (relative stereo) [Compound 489, ((trans)-4-amino-1-(12-(4-fluorophenyl)-9H-benzo[e]imidazo[2,1-c]pyrrolo[1,2-a][1,4]diazepin-7-yl)pyrrolidin-3-yl)methanol]
< 50 | CN(C)C[C@H]1CN(c2ccc3c(n2)Cn2cc(-c4ccc(C#N)cc4)cc2-c2nccn2-3)C[C@H]1O [Compound 298, 4-(7-((3S,4S)-3-((dimethylamino)methyl)-4-hydroxypyrrolidin-1-yl)-9H-imidazo[2,1-c]pyrido[3,2-e]pyrrolo[1,2-a][1,4]diazepin-12-yl)benzonitrile]
< 50 | NCCC1CCN(c2ccc3c(c2)Cn2cc(-c4ccc(F)cc4)cc2-c2nccn2-3)C1 (centres unmarked) [Compound 486, 2-(1-(12-(4-fluorophenyl)-9H-benzo[e]imidazo[2,1-c]pyrrolo[1,2-a][1,4]diazepin-7-yl)pyrrolidin-3-yl)ethanamine]
< 50 | OC1CN(c2ccc3c(c2)Cn2cc(-c4ccc(F)cc4)cc2-c2nccn2-3)CC1CN1CCC1 (single isomer, unassigned) [Compound 469]
< 50 | CN(C)[C@@H]1CCN(c2ccc3c(c2)Cn2cc(-c4ccc(C#N)cc4)cc2-c2ncnn2-3)C1 [Compound 259, (R)-4-(7-(3-(dimethylamino)pyrrolidin-1-yl)-9H-benzo[e]pyrrolo[1,2-a][1,2,4]triazolo[5,1-c][1,4]diazepin-12-yl)benzonitrile]

SMILES | IC50 [nM]
N#Cc1ccc(-c2cc3n(c2)Cc2cc(N4CCNCC4)ccc2-n2cnnc2-3)cc1 [Compound 1, 4-(7-(piperazin-1-yl)-9H-benzo[e]pyrrolo[1,2-a][1,2,4]triazolo[3,4-c][1,4]diazepin-12-yl)benzonitrile] | 100 to 200
